The record followed here is ChEMBL document CHEMBL1649177, “Further identification of CTX-M-2 extended-spectrum beta-lactamase in Pseudomonas aeruginosa” (2009).

In brackets after ≈: the same amount, converted by molar mass. Activity calls are given as the source filed them. The rule behind the calls is not given here. Where only a bound is given, the exact number is not on record here.

The test system of the first assay is Pseudomonas aeruginosa. Description: Antimicrobial activity against extended spectrum beta-lactamase CTX-M-2-producing Pseudomonas aeruginosa isolate P6208 by Etest. The assay is classed as functional.
Molecule `CO/N=C(\C(=O)N[C@@H]1C(=O)N2C(C(=O)[O-])=C(C[N+]3(C)CCCC3)CS[C@H]12)c1csc(N)n1` [CEFEPIME] displayed an MIC of more than 256 µg/mL.

Molecule `CO/N=C(\C(=O)N[C@@H]1C(=O)N2C(C(=O)O)=C(COC(C)=O)CS[C@H]12)c1csc(N)n1` [CEFOTAXIME] came in with a minimal inhibitory concentration (MIC) of more than 32 µg/mL.

Molecule `CC(C)(O/N=C(\C(=O)N[C@@H]1C(=O)N2C(C(=O)[O-])=C(C[n+]3ccccc3)CS[C@H]12)c1csc(N)n1)C(=O)O` [CEFTAZIDIME] yielded an MIC of 2 µg/mL (≈ 3.66 µM).

`C[C@@H](O)[C@H]1C(=O)N2C(C(=O)O)=C(SCCNC=N)C[C@H]12` [IMIPENEM ANHYDROUS]: the MIC stood at 1 µg/mL (≈ 3.34 µM).

The test system of a further assay is Pseudomonas aeruginosa. Description: Antimicrobial activity against extended spectrum beta-lactamase CTX-M-2-producing Pseudomonas aeruginosa isolate P6208. It counts as functional, organism-based.
On to `NCC[C@H](O)C(=O)N[C@@H]1C[C@H](N)[C@@H](O[C@H]2O[C@H](CN)[C@@H](O)[C@H](O)[C@H]2O)[C@H](O)[C@H]1O[C@H]1O[C@H](CO)[C@@H](O)[C@H](N)[C@H]1O`, for which the outcome was Active.

Consider `NC[C@H]1O[C@H](O[C@H]2[C@H](O)[C@@H](O[C@H]3O[C@H](CO)[C@@H](O)[C@H](N)[C@H]3O)[C@H](N)C[C@@H]2N)[C@H](N)C[C@@H]1O`, for which the outcome was Active.

Turning to COLISTIN, the result was Active.

As to GENTAMICIN, the outcome was Active.
